Laboratory results as given in patent US20240189275A1, “METHODS FOR TREATING NON-ALCOHOLIC STEATOHEPATITIS WITH A SCD-1 INHIBITOR” (Lipidio Pharmaceuticals, Inc., priority 2021, published 2024).

How the values were obtained:
[1] = system: diet-induced and biopsy-confirmed mouse model of NASH; assay: Terminal hepatic triglyceride content in mouse model of NASH; format: in vivo, mice; details: 2.5% gel, week 12; p<0.001
Protocol: (§1) SCD-1 inhibitor compounds can be tested in vivo in a rodent diet-induced model of biopsy-confirmed NASH. In this experiment, the NASH phenotype is induced by maintaining mice upon a GAN diet for 33 weeks prior to drug administration (BMC Gastroenterology (2020), 20(1), 210; World Journal of Gastroenterology (2019), 25(33), 4904-4920). A biopsy is performed prior to drug treatment to eliminate any mice that have not developed the NASH phenotype and to mirror clinical trial design where liver biopsies prior to and at the end of treatment are compared. In addition to pre- and post-treatment histological analyses, metabolic assessments such as body weight, body composition, food intake and clinical chemistries are measured during and following the 12-week study dosing period.
(§2) Mice were dosed topically to 10% of the total BSA of the skin with either a placebo gel or a gel containing compound 25 (at a concentration of 0.05%, 0.25%, 0.75%, or 2.5%). (World Journal of Gastroenterology (2018), 24(2), 179-194).
Animals and Diet: The Danish Animal Experiments Inspectorate approved all experiments which were conducted using internationally accepted principles for the use of laboratory animals under the personal license #2013-15-2934-00784. […] Mice were weighed daily during the study and body composition was measured by non-invasive EchoMRI scanning using EchoMRI-900 (EchoMRI, Houston, TX). […]

[2] = Body weight and body composition (EchoMRI) in GAN diet-induced, biopsy-confirmed mouse model of NASH; format: in vivo, mice; details: 12 weeks
Protocol: (§3) The effects of topical treatment of Compound 25 to 10% of the skin for 12 weeks were assessed in a diet-induced and biopsy-confirmed mouse model of NASH described in the literature (World Journal of Gastroenterology (2019), 25(33), 4904-4920). In this model, NASH is induced by maintaining mice on a high fat-high fructose diet (the so-called GAN [Novel Gubra Amylin] diet) for 33 weeks prior to drug administration. […] This biopsy is then compared to a post-drug treatment biopsy to assess changes in NAFLD activity and Fibrosis Stage. Qualitative scoring is completed with quantitative immunohistochemistry to assess effects on hepatic steatosis, inflammation (Galectin-3), fibrosis (Collagen 1a1 and Picro-Sirius Red Staining) and stellate cell activation (α-SMA). RNASeq was also performed on terminal liver samples from mice treated with placebo gel and compound 25 gel to examine key candidate genes involved in extracellular matrix formation (ECM) and fibrogenesis. Parametric (ANOVA) and non-parametric (Fisher's or Chi Square) statistics were used to analyze the data as appropriate.
as §1, with “A biopsy is performed prior to drug treatment to eliminate any mice that have not developed the NASH phenotype and to mirror clinical trial design where liver biopsies prior to and at the end of treatment are compared.” left out, “period. […]” for “period.”
Animals and Diet: The Danish Animal Experiments Inspectorate approved all experiments which were conducted using internationally accepted principles for the use of laboratory animals under the personal license #2013-15-2934-00784. […] Mice were weighed daily during the study and body composition was measured by non-invasive EchoMRI scanning using EchoMRI-900 (EchoMRI, Houston, TX).

[3] = system: diet-induced and biopsy-confirmed mouse model of NASH; assay: Liver histology (NAS, fibrosis stage, quantitative histomorphometry) in GAN diet-induced, biopsy-confirmed mouse model of NASH; format: in vivo, mice; details: for number of mice with worsening (higher score) of Fibrosis Stage: placebo gel 7/16; for liver content (in mg) of α-SMA, antibody-stained sections / liver Galectin-3 content (in mg), antibody-stained sections / liver lipid content (hematoxylin and eosin-stained sections): week 12; for number of animals experiencing an improvement in NAS: topical, p<0.05 compared to placebo
Protocol: as §3, §1, §2
(§4) Animals and Diet: The Danish Animal Experiments Inspectorate approved all experiments which were conducted using internationally accepted principles for the use of laboratory animals under the personal license #2013-15-2934-00784. B6.V-Lepob/JRj (ob/ob) mice (6 weeks old) were from Janvier Labs (Le Genest Saint Isle, France) and housed in a controlled environment (12h light/dark cycle, lights on at 3 AM, 21+2° C., humidity 50+10%). Each animal was identified by an implantable subcutaneous microchip (PetID Microchip, E-vet, Haderslev, Denmark). Mice had ad libitum access to tap water and the Gubra Amylin NASH diet [GAN diet; 40 kcal-% fat (of these 0% trans-fat and 46% saturated fatty acids by weight), 22% fructose, 10% sucrose, 2% cholesterol; D09100310, Research Diets]. Mice were maintained on the GAN diet for 33 weeks prior to study initiation to induce NASH and remained on the GAN diet during the 12 weeks of drug administration. Mice were weighed daily during the study and body composition was measured by non-invasive EchoMRI scanning using EchoMRI-900 (EchoMRI, Houston, TX).
Liver Biopsy: After 33 weeks of GAN diet feeding, mice were anesthetized with isoflurane (2%-3%, in 100% oxygen), a small abdominal incision in the midline was made, and the left lateral lobe of the liver was exposed. A cone-shaped wedge of liver tissue (50-100 mg) was excised from the distal part of the lobe. The cut surface of the liver was closed by electrosurgical bipolar coagulation using an electrosurgical unit (ERBE VIO® 100C, ERBE, Marietta, GA, United States). The liver was returned to the abdominal cavity, the abdominal wall was sutured and skin stapled. Carprofen (5 mg/kg, i.p.) was administered at the time of surgery and at post-operative day one and two. […]

[4] = biological target: T1, human SCD-1 (Homo sapiens, UniProt O00767); assay: Inhibition of SCD-1 activity in human liver microsomes (13C-stearoyl-CoA to 13C-oleoyl-CoA, LC/MS/MS); format: biochemical; details: FIG. 1, IC50 value not given
T1 construct: human liver microsome (HLM, InVitroCYP™ H-class, Pool of 25 donors BiolVT); tissue BiolVT InVitroCYP™ H-class; host or cells: human liver microsomes, pool of 25 donors
T1 sequence (O00767 1-359): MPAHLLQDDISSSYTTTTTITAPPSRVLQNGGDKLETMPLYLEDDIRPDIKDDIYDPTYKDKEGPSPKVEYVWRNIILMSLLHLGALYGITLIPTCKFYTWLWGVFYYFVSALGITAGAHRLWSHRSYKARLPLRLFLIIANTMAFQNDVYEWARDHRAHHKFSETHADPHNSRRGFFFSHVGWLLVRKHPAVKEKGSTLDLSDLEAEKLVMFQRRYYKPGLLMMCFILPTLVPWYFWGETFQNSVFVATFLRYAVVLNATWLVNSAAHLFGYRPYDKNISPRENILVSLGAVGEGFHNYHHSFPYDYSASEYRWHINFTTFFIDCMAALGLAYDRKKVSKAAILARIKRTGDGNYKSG
Protocol: (§5) The ability of the compound to inhibit isolated SCD-1 enzyme activity can be evaluated in rat and human microsomes as described below (Oncotarget (2018), 9, 3-20). The compound is added as various concentrations to the liver microsomes and incubated for 5 minutes with ^13C-labelled Stearoyl CoA, which is the substrate for SCD-1. The activity of SCD-1 is then determined by the conversion of ^13C-Steoryl CoA to ^13C-Oleoyl CoA using an LC/MS/MS method. The ability of the compound to inhibit SCD-1 activity is expressed as an IC50.
(§6) Compound 25 is dissolved in DMSO to prepare a 10 mM stock solution.
(§7) Rat liver microsomes (RLM, BiolVT) and human liver microsome (HLM, InVitroCYP™ H-class, Pool of 25 donors BiolVT) solutions are prepared by adding the microsomes to 100 mM sodium phosphate, pH 7.4, at a protein concentration of 1.00 mg/mL.
(§8) Compound 25 stock solution is then added to the RLM and HLM solution at an initial concentration of 0.2 μM for direct inhibition. Each LM/Inhibitor Solution is added to blank LM solution to give 8 concentrations prepared by a 3-fold serial dilution. These diluted LM/inhibitor solutions are then added to a reaction buffer containing 2 mM NADH, 120 μM Coenzyme A, 2 mM ATP, 2 mM DTT, and 10 mM MgCl2 in 100 mM sodium phosphate, pH 7.4.
(§9) A Stearoyl-^13Cis-CoA solution in 10% methanol in water is prepared at a final concentration of 3.00 mM. […]

[5] = system: diet-induced and biopsy-confirmed mouse model of NASH; assay: Plasma ALT and AST in mouse model of NASH; format: in vivo, mice; details: for plasma alanine transaminase (ALT) (units/L) / plasma aspartate transaminase (AST) (units/L): week 12
Protocol: as §1, §2, §4
Plasma Biochemistry Analysis: Blood samples are collected in heparinized tubes and plasma is separated and stored at −80° C. until analysis. Alanine aminotransferase and aspartate aminotransferase (FIG. 12) were measured using commercial kits (Roche Diagnostics) on the Cobas c 501 autoanalyzer according to the manufacturer's instructions.

[6] = biological target: T2, rat SCD-1 (Rattus norvegicus, UniProt P07308); assay: Inhibition of SCD-1 activity in rat liver microsomes (13C-stearoyl-CoA to 13C-oleoyl-CoA, LC/MS/MS); format: biochemical; details: FIG. 1, IC50 value not given
T2 construct: Rat liver microsomes (RLM, BiolVT); tissue BiolVT; host or cells: rat liver microsomes
T2 sequence (P07308 1-358): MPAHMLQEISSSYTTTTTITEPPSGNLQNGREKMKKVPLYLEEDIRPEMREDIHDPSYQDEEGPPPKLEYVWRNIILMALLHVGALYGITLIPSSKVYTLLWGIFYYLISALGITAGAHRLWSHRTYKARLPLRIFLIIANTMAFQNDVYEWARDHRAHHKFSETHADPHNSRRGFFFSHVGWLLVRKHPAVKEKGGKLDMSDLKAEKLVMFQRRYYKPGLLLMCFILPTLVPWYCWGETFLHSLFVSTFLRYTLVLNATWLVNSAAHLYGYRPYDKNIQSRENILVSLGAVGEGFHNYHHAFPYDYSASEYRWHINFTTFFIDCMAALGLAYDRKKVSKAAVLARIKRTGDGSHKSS
Protocol: as §5, §6, §7, §8, §9

[7] = system: liver genes involved in inflammation, fibrogenesis, extracellular matrix formation and NASH progression; assay: RNASeq of terminal liver samples (mRNA expression) in mouse model of NASH; format: in vivo, mice
Protocol: as §3, §1, §2, §4

[8] = 2.5% gel, topical to 10% of skin, p<0.001
[9] = 0.75% and 2.5% dose groups (group not specified), 16 animals per group, 12 weeks
[10] = conclusion, topical to 10% of BSA, dose not specified

inhibition of human SCD-1 activity [4]: concentration-dependent inhibition
inhibition of rat SCD-1 activity [6]: concentration-dependent inhibition
Structure (SMILES): O=C(COc1ccc(CO)cc1)N1CC[C@H](Oc2ccccc2C(F)(F)F)C1 [Compound 25, (S)-2-(4-(hydroxymethyl)phenoxy)-1-(3-(2-(trifluoromethyl)phenoxy)pyrrolidin-1-yl)ethan-1-one]
liver triglyceride content [1]: significantly reduced
body adiposity (percent body weight) [2, 8]: significantly reduced
body weight (percent baseline body weight) [2, 8]: significantly reduced
total body weight or body fat ([2]; lower doses at which fibrosis changes were observed, topical): no or minimal effect
number of mice with worsening (higher score) of Fibrosis Stage ([3]; 0.25% gel, 12 weeks): 2/16
liver content (in mg) of α-SMA, antibody-stained sections ([3]; 0.25% gel, p<0.05): significantly reduced
proportion of mice exhibiting any worsening of the fibrosis stage ([3]; 0.25%, 0.75% and 2.5% gel groups, 12 weeks, placebo almost 50%): 6-12%
animals showing a higher NAS score [3, 9]: none
animals with a lower NAS score [3, 9]: 15/16
liver content of Collagen 1a1 (in mg), antibody-stained sections ([3]; 0.75% gel, 12 weeks, p<0.05): significant reduction
liver content of Picro-Sirius Red (in mg) ([3]; 0.75% gel, 12 weeks, p<0.05): significantly reduced
number of mice with worsening (higher score) of Fibrosis Stage ([3]; 0.75% gel, 12 weeks): 2/16
number of animals experiencing an improvement in NAS ([3]; 0.75% gel, 12 weeks): significantly greater
liver content (in mg) of α-SMA, antibody-stained sections ([3]; 0.75% gel, p<0.01): significantly reduced
liver Galectin-3 content (in mg), antibody-stained sections ([3]; 0.75% gel, p<0.05): significantly reduced
liver lipid content (hematoxylin and eosin-stained sections) ([3]; 0.75% gel, p<0.05): significantly reduced
liver content of Picro-Sirius Red (in mg) ([3]; 2.5% gel, 12 weeks, p<0.001): significantly reduced
liver content of Collagen 1a1 (in mg), antibody-stained sections ([3]; 2.5% gel, 12 weeks, p<0.01): significant reduction
number of mice with worsening (higher score) of Fibrosis Stage ([3]; 2.5% gel, 12 weeks): 1/16
number of animals experiencing an improvement in NAS ([3]; 2.5% gel, 12 weeks): significantly greater
liver Galectin-3 content (in mg), antibody-stained sections ([3]; 2.5% gel, p<0.001): significantly reduced
liver content (in mg) of α-SMA, antibody-stained sections ([3]; 2.5% gel, p<0.001): significantly reduced
liver lipid content (hematoxylin and eosin-stained sections) ([3]; 2.5% gel, p<0.001): significantly reduced
liver content of Collagen 1a1 (in mg), antibody-stained sections ([3]; all doses (0.05%, 0.25%, 0.75%, 2.5% gel), 12 weeks): clear trend in reduction
multiple quantitative markers of collagen (Collagen 1a1 immunohistochemistry; PSR staining; Collagen 1a1, 3a1, 4a1 mRNA) ([3]; conclusion, dose not specified): decreased
α-SMA expression (stellate cell activation) ([3]; conclusion, dose not specified): decreased
fibrosis stage [3, 10]: prevented worsening
hepatic steatosis [3, 10]: improved
inflammation [3, 10]: decreased
overall NAFLD Activity Score or NAS [3, 10]: improved
plasma alanine transaminase (ALT) (units/L) ([5]; 0.75% gel): reduction
plasma aspartate transaminase (AST) (units/L) ([5]; 0.75% gel): reduction
plasma alanine transaminase (ALT) (units/L) ([5]; 2.5% gel): reduction
plasma aspartate transaminase (AST) (units/L) ([5]; 2.5% gel): reduction
serum ALT and AST ([5]; conclusion, after topical dosing, dose not specified): marked decrease
liver Galectin-3 mRNA ([7]; 2.5% gel): Reduced
liver mRNA expression of genes associated with NASH progression and poor prognosis ([7]; 2.5% gel, Aldh8a1, Aldh7a1, Annexin A2, CD36, CNBP, CIDEC, Cyclin D1, Fasn, Hsbp1, KIF6, Nfe212, Perilipin 2): significant regulation
liver mRNA expression of genes involved in hepatic inflammation ([7]; 2.5% gel, Chemokine Ligand 2, Chemokine Ligand 5, Epithelial Cell Adhesion Protein, Cluster of Differentiation 68, Integrin X): significantly downregulated
liver mRNA expression of genes involved in NASH fibrogenesis and extracellular matrix formation ([7]; 2.5% gel, Monocyte Chemoattractant Protein-1, Osteonectin, α-SMA, Collagen 1a1, Collagen 3a1, Collagen 4a1): significantly downregulated
candidate genes whose expression may be predictive for poor outcomes like liver cirrhosis and cancer ([7]; conclusion, dose not specified): favorably regulated
